Assay results taken from PubChem BioAssay AID330 (DTP/NCI, 2004).
Where “and” joins values, the source holds several entries; their conditions need not be identical. Equal entries are not always repeated. Toxic doses and inconclusive results are not listed.

System: P388 leukemia ip, CD2F1 mice, survival T/C
Assay: NCI In Vivo Anticancer Drug Screen. Data for tumor model P388 Leukemia (intraperitoneal) in CD2F1 (CDF1) mice
Details: endpoint: median survival time, higher = longer survival
How it was run: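 Mice carrying the transplanted tumor received test compound or vehicle. Survival was recorded in each group, and the value is the treated-group measurement divided by that of the vehicle-treated control group.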

[1] = dose: 50.0 mg/kg/injection, schedule: Q01DX009 (ip), vehicle: saline with Tween-80
[2] = dose: 100.0 mg/kg/injection, schedule: Q01DX009 (ip), vehicle: saline with Tween-80
[3] = dose: 60.0 mg/kg/injection, schedule: Q01DX005 (ip), vehicle: saline
[4] = dose: 120.0 mg/kg/injection, schedule: Q01DX005 (ip), vehicle: saline
[5] = dose: 240.0 mg/kg/injection, schedule: Q01DX005 (ip), vehicle: saline
[6] = dose: 50.0 mg/kg/injection, schedule: Q01DX005 (ip), vehicle: Klucel (hydroxypropylcellulose) (HPC)
[7] = dose: 100.0 mg/kg/injection, schedule: Q01DX005 (ip), vehicle: Klucel (hydroxypropylcellulose) (HPC)
[8] = dose: 200.0 mg/kg/injection, schedule: Q01DX005 (ip), vehicle: Klucel (hydroxypropylcellulose) (HPC)
[9] = dose: 60.0 mg/kg/injection, schedule: Q01DX005 (ip), vehicle: Klucel (hydroxypropylcellulose) (HPC)
[10] = dose: 200.0 mg/kg/injection, schedule: Q01DX009 (ip), vehicle: saline with Tween-80
[11] = dose: 50.0 mg/kg/injection, schedule: Q01DX005 (ip), vehicle: saline with Tween-80
[12] = dose: 100.0 mg/kg/injection, schedule: Q01DX005 (ip), vehicle: saline with Tween-80
[13] = dose: 200.0 mg/kg/injection, schedule: Q01DX005 (ip), vehicle: saline with Tween-80
[14] = dose: 12.5 mg/kg/injection, schedule: Q01DX005 (ip), vehicle: Klucel (hydroxypropylcellulose) (HPC)
[15] = dose: 25.0 mg/kg/injection, schedule: Q01DX005 (ip), vehicle: Klucel (hydroxypropylcellulose) (HPC)
[16] = dose: 50.0 mg/kg/injection, schedule: Q01DX009 (ip), vehicle: saline
[17] = dose: 100.0 mg/kg/injection, schedule: Q01DX009 (ip), vehicle: saline
[18] = dose: 200.0 mg/kg/injection, schedule: Q01DX009 (ip), vehicle: saline
[19] = dose: 120.0 mg/kg/injection, schedule: Q01DX005 (ip), vehicle: Klucel (hydroxypropylcellulose) (HPC)

## CC(=O)OCC1OC(n2ncc(=O)[nH]c2=O)C(OC(C)=O)C1OC(C)=O (stereo unspecified)
[1]
  T/C: 122 % of control
dose: 100.0 mg/kg/injection, schedule: Q01DX009 (ip), vehicle: saline sonified
  T/C: 118 % of control
[2]
  T/C: 122 % of control
dose: 200.0 mg/kg/injection, schedule: Q01DX009 (ip), vehicle: saline sonified
  T/C: 122 % of control
dose: 400.0 mg/kg/injection, schedule: Q01DX009 (ip), vehicle: saline sonified
  T/C: 118 % of control
dose: 800.0 mg/kg/injection, schedule: Q01DX009 (ip), vehicle: saline with Tween-80
  T/C: 100 % of control

## CCC(=O)NC(N)=NC#N
[3]
  T/C: 99 % of control
[4]
  T/C: 101 % of control
[5]
  T/C: 98 % of control

## O=[N+]([O-])c1ccc(SSc2ccc([N+](=O)[O-])s2)s1
dose: 100.0 mg/kg/injection, schedule: Q01DX001 (ip), vehicle: Klucel (hydroxypropylcellulose) (HPC)
  T/C: 106 % of control

## COC(=O)n1oc2ccc(Br)cc2c1=O
[6]
  T/C: 98 % of control
[7]
  T/C: 100 % of control
[8]
  T/C: 106 % of control

## CC1=C(C(=O)Nc2ccccc2C)C(c2cccc([N+](=O)[O-])c2)C(C(=O)Nc2ccccc2C)=C(C)N1
dose: 15.0 mg/kg/injection, schedule: Q01DX005 (ip), vehicle: Klucel (hydroxypropylcellulose) (HPC)
  T/C: 102 % of control
dose: 30.0 mg/kg/injection, schedule: Q01DX005 (ip), vehicle: Klucel (hydroxypropylcellulose) (HPC)
  T/C: 93 % of control
[9]
  T/C: 88 % of control and 97 % of control

## CCC1CN1P(=O)(Oc1ccc2ccccc2c1)N1CC1CC (stereo unspecified)
dose: 44.0 mg/kg/injection, schedule: Q04DX003 (ip), vehicle: saline with Tween-80
  T/C: 104 % of control
[1]
  T/C: 173 % of control
dose: 66.0 mg/kg/injection, schedule: Q04DX003 (ip), vehicle: saline with Tween-80
  T/C: 109 % of control
[2]
  T/C: 155 % of control and 177 % of control
dose: 150.0 mg/kg/injection, schedule: Q01DX009 (ip), vehicle: saline with Tween-80
  T/C: 100 % of control
dose: 150.0 mg/kg/injection, schedule: Q04DX003 (ip), vehicle: saline with Tween-80
  T/C: 240 % of control
[10]
  T/C: 170 % of control

## C=C1C(=O)O[C@@H]2C[C@@]3(C)CCC[C@H](C)C3=C[C@H]12
dose: 25.0 mg/kg/injection, schedule: Q01DX009 (ip), vehicle: saline with Tween-80
  T/C: 94 % of control
[1]
  T/C: 98 % of control
[2]
  T/C: 100 % of control
[10]
  T/C: 100 % of control

## CC(CC(=O)O)C(C)(C#N)C(=O)O (stereo unspecified)
dose: 50.0 mg/kg/injection, schedule: Q01DX005 (ip), vehicle: saline
  T/C: 102 % of control and 110 % of control
dose: 100.0 mg/kg/injection, schedule: Q01DX005 (ip), vehicle: saline
  T/C: 91 % of control and 96 % of control
dose: 200.0 mg/kg/injection, schedule: Q01DX005 (ip), vehicle: saline
  T/C: 96 % of control

## COc1ccc2nccc(CC(O)C(Cl)(Cl)Cl)c2c1 (stereo unspecified)
[11]
  T/C: 105 % of control
[12]
  T/C: 93 % of control
[13]
  T/C: 101 % of control

## COc1ccc(CN2COc3c(cc(Cl)c4cccnc34)C2)cc1
dose: 100.0 mg/kg/injection, schedule: Q04DX003 (ip), vehicle: Klucel (hydroxypropylcellulose) (HPC)
  T/C: 96 % of control
dose: 200.0 mg/kg/injection, schedule: Q04DX003 (ip), vehicle: Klucel (hydroxypropylcellulose) (HPC)
  T/C: 104 % of control
dose: 400.0 mg/kg/injection, schedule: Q04DX003 (ip), vehicle: Klucel (hydroxypropylcellulose) (HPC)
  T/C: 95 % of control

## CCC[CH2][Sn]([F])([CH2]CCC)[O][Sn]([F])([CH2]CCC)[CH2]CCC
dose: 100.0 mg/kg/injection, schedule: Q04DX003 (ip), vehicle: saline
  T/C: 101 % of control
dose: 200.0 mg/kg/injection, schedule: Q04DX003 (ip), vehicle: saline
  T/C: 105 % of control

## CC1(C)OC(=O)C(CCc2ccncc2)(CCc2ccncc2)C(=O)O1
[1]
  T/C: 115 % of control
[2]
  T/C: 104 % of control
[10]
  T/C: 106 % of control

## CSC(=O)NC(=Nc1ccccc1)NC(=O)c1ccccc1
[14]
  T/C: 90 % of control
[15]
  T/C: 93 % of control
[6]
  T/C: 91 % of control
[7]
  T/C: 88 % of control
[8]
  T/C: 89 % of control and 91 % of control

## CC(=O)OC1CC2CCC1(C)C2(C)C (stereo unspecified)
[1]
  T/C: 109 % of control
dose: 50.0 mg/kg/injection, schedule: Q04DX003 (ip), vehicle: saline with Tween-80
  T/C: 105 % of control
[2]
  T/C: 104 % of control
dose: 100.0 mg/kg/injection, schedule: Q04DX003 (ip), vehicle: saline with Tween-80
  T/C: 100 % of control
dose: 200.0 mg/kg/injection, schedule: Q04DX003 (ip), vehicle: saline with Tween-80
  T/C: 100 % of control

## O=C1NCCCC1(c1ccccc1)c1ccccc1
[16]
  T/C: 98 % of control
[17]
  T/C: 102 % of control
[18]
  T/C: 97 % of control

## CN(C)C1=CC=C2C(=O)c3ccccc3C2(c2ccccc2)C=C1 (stereo unspecified)
dose: 100.0 mg/kg/injection, schedule: Q04DX002 (ip), vehicle: saline with Tween-80
  T/C: 89 % of control
dose: 200.0 mg/kg/injection, schedule: Q04DX002 (ip), vehicle: saline with Tween-80
  T/C: 88 % of control
dose: 400.0 mg/kg/injection, schedule: Q04DX002 (ip), vehicle: saline with Tween-80
  T/C: 89 % of control

## COc1cc(C2C(C(=O)OC/C=C/c3ccc4c(c3)OCO4)C(c3cc(OC)c(OC)c(OC)c3)C2C(=O)OC/C=C/c2ccc3c(c2)OCO3)cc(OC)c1OC (stereo unspecified)
[1]
  T/C: 87 % of control
[2]
  T/C: 93 % of control
[10]
  T/C: 95 % of control
dose: 400.0 mg/kg/injection, schedule: Q01DX009 (ip), vehicle: saline with Tween-80
  T/C: 102 % of control

## CC1[C@@H]2CC=C3[C@H]4CCC5Cc6nc7c(nc6C[C@@]5(C)C4CC(=O)[C@]32CO[C@]12OC(C)(C)CC2O)CC1CC[C@@H]2C3=C[C@H]4O[C@@]5(O[C@@](C)(CO)C[C@@H]5O)C(C)[C@@]4(O)[C@]3(C)[C@@H](O)CC2[C@]1(C)C7 (stereo partly specified)
dose: 0.08 mg/kg/injection, schedule: Q01DX009 (ip), vehicle: saline + alcohol
  T/C: 86 % of control
dose: 10.0 micrograms/kg/injection, schedule: Q01DX005 (ip), vehicle: saline + alcohol
  T/C: 115 % of control and 117 % of control
dose: 20.0 micrograms/kg/injection, schedule: Q01DX005 (ip), vehicle: saline + alcohol
  T/C: 114 % of control and 115 % of control
dose: 80.0 micrograms/kg/injection, schedule: Q01DX005 (ip), vehicle: saline + alcohol
  T/C: 123 % of control

## COC(=O)C1=COC(OC2OC(COC(C)=O)C(OC(C)=O)C(OC(C)=O)C2OC(C)=O)C2C(C)CC(OC(C)=O)C12 (stereo unspecified)
[14]
  T/C: 105 % of control
[15]
  T/C: 98 % of control
[6]
  T/C: 96 % of control

## CSc1nc(N)c(NS(=O)(=O)c2ccccc2)c(=O)[nH]1
[9]
  T/C: 92 % of control
[19]
  T/C: 91 % of control
dose: 240.0 mg/kg/injection, schedule: Q01DX005 (ip), vehicle: Klucel (hydroxypropylcellulose) (HPC)
  T/C: 90 % of control

## COC(=O)[C@@]12C(=O)N[C@@H](Cc3ccccc3)[C@@H]1[C@H](C)C(C)=C[C@@H]2CO
[3]
  T/C: 98 % of control
[4]
  T/C: 95 % of control
[5]
  T/C: 98 % of control

## [Cl][Fe]([Cl])([Cl])[Cl].c1ccc(C[n+]2ccccc2)cc1
dose: 6.25 mg/kg/injection, schedule: Q01DX009 (ip), vehicle: saline
  T/C: 108 % of control
dose: 12.5 mg/kg/injection, schedule: Q01DX009 (ip), vehicle: saline
  T/C: 104 % of control
dose: 25.0 mg/kg/injection, schedule: Q01DX009 (ip), vehicle: saline
  T/C: 117 % of control

## CC1(C)C2C=CC(OC2=O)C1(C)NC(=O)OCc1ccccc1 (stereo unspecified)
[16]
  T/C: 96 % of control
[17]
  T/C: 98 % of control
[18]
  T/C: 99 % of control

## CC1OC(OC2C(Oc3cc(O)c4c(c3)O[C@H](c3ccc(O)cc3)CC4=O)OC(CO)C(O)C2O)C(O)C(O)C1O (stereo partly specified)
[6]
  T/C: 97 % of control
[7]
  T/C: 97 % of control
[8]
  T/C: 101 % of control

## COCCCNC(=O)c1nc2ccccc2c(=O)n1NC(=O)Cc1ccccc1
[11]
  T/C: 95 % of control
[12]
  T/C: 95 % of control
[13]
  T/C: 95 % of control

## CCOC(=O)C(NC(=O)c1ccccc1)(C(=O)OCC)c1ccccn1
[3]
  T/C: 99 % of control
[4]
  T/C: 99 % of control
[5]
  T/C: 105 % of control

## Cc1cc[c]([Bi]([c]2ccc(C)cc2)[c]2ccc(C)cc2)cc1
[9]
  T/C: 105 % of control
[19]
  T/C: 96 % of control
